The record followed here is patent publication US20140045856A1, “4-Methyl-2,3,5,9,9b-pentaaza-cyclopenta[a]naphthalenes” (BOEHRINGER INGELHEIM INTERNATIONAL GMBH, priority 2012, published 2014).

A value given as a limit tells only on which side of the number the result lay.

In series [1] the target is PDE10 (Homo sapiens, UniProt Q9Y233). Put plainly: PDE10 assay with fluorescent substrate (IMAP, fluorescence polarization). Type of series: biochemical.
Series [2] addresses PDE2A (Homo sapiens, UniProt O00408). Put plainly: PDE 2A assay with fluorescent substrate (IMAP, fluorescence polarization). The following applies: read-out: PDE2 IC50. Type of series: biochemical.
Excerpt: c) Phosphodiesterase (PDE) 2A and 10 Assay with Fluorescent Substrate
The PDE reaction cleaves cAMP to AMP. The IMAP system (Molecular Device) using fluorescence polarization (FP) as detection principle was used to measure enzyme activity. A fluorescent labeled cAMP was used as substrate for the reaction, generating a labeled AMP. The fluorescent AMP binds specifically to the large M(III)-based nano-particles which reduces the rotational speed of the substrate and thus increases its polarization.
The inhibition of PDE 2A or 10 enzyme activity was assessed using IMAP-Phosphodiesterase-cAMP fluorescence labeled substrate (Molecular Devices, Order No. R7506), IMAP TR-FRET screening express (Molecular Devices, Order No. R8160, the TR-FRET component will not be used) and PDE 2A or PDE10 protein expressed upon baculovirus infection in SF9 cells. The cells were incubated after infection for ˜3 days and protein production was confirmed by Western Blot. The cells were collected by centrifugation and the pellet frozen in liquid nitrogen before it was resuspended in PBS containing 1% Triton X-100 and protease inhibitors.
All reactions were performed in 384 well plates, Perkin Elmer black optiplates and IMAP reaction buffer with 0.1% Tween20 (kit component)
Compounds were serial diluted in DMSO. With an intermediate dilution step with reaction buffer DMSO concentration was reduced to achieve 1% DMSO in the assay reaction. Setup of the assay started with 10 μl enzyme (˜10 ng/well, depending on prep. batch), 5 μl compound, reaction was started by addition of 5 μl labeled cAMP (30 nM, final concentration), immediately mixed for 15 seconds on a Eppendorf mixmate (2000 rpm) followed by an incubation at room temperature for 90 minutes in the dark. Reaction is stopped by adding of 60 μl binding buffer for FP/cAMP (kit component).
Each assay plate contained wells with vehicle controls (1% DMSO) for the measurement of non-inhibited reaction (=100% control) and wells without enzyme as 0% controls.
Series [3] is described as follows: Metabolic stability in pooled liver microsomes. The following applies: human liver microsomes, 37° C., 1 mg/mL microsomal protein, test compound 1 μM, NADPH. The class given is in vitro ADME. The method, then: The metabolic stability of the compounds according to the invention has been investigated as follows:
The metabolic degradation of the test compound was assayed at 37° C. with pooled liver microsomes from various species. The final incubation volume of 100 μl per time point contains TRIS buffer pH 7.6 at room temperature (0.1 M), magnesium chloride (5 mM), microsomal protein (1 mg/mL for human and dog, 0.5 mg/mL for other species) and the test compound at a final concentration of 1 μM. Following a short preincubation period at 37° C., the reactions were initiated by addition of betanicotinamide adenine dinucleotide phosphate, reduced form (NADPH, 1 mM), and terminated by transferring an aliquot into solvent after different time points. […] The half-life was determined by the slope of the semi-logarithmic plot of the concentration-time profile.

Sequence of PDE10 (Q9Y233 whole entry, species assumed): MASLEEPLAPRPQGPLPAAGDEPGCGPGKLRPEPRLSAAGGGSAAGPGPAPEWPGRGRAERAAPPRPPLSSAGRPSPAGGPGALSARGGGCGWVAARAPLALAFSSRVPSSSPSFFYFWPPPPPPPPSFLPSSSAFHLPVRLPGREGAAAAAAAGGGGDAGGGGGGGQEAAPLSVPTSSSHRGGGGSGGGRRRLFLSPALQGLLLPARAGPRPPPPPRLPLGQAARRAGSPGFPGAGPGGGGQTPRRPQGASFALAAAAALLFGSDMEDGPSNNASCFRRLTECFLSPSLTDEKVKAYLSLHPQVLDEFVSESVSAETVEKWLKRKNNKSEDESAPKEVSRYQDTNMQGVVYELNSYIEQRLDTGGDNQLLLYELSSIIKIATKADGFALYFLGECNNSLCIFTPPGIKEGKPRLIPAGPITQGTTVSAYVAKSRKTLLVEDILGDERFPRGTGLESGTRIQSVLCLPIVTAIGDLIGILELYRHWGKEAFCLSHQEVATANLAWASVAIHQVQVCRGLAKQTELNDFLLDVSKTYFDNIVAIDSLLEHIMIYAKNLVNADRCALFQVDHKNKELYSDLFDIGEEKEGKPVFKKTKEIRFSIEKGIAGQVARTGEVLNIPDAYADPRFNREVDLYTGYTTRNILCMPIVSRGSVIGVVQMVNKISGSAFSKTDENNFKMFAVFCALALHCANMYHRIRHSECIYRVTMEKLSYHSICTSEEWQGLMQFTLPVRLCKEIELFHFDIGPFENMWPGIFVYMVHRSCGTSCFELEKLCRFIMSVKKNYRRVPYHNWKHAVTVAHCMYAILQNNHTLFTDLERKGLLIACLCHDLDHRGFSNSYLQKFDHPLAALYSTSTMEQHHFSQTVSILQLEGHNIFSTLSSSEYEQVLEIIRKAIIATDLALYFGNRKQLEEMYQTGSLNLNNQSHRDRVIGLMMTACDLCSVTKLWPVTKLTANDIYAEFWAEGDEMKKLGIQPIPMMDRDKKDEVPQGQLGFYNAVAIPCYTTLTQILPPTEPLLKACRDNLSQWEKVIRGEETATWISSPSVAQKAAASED
Sequence of PDE2A (O00408 whole entry, species assumed): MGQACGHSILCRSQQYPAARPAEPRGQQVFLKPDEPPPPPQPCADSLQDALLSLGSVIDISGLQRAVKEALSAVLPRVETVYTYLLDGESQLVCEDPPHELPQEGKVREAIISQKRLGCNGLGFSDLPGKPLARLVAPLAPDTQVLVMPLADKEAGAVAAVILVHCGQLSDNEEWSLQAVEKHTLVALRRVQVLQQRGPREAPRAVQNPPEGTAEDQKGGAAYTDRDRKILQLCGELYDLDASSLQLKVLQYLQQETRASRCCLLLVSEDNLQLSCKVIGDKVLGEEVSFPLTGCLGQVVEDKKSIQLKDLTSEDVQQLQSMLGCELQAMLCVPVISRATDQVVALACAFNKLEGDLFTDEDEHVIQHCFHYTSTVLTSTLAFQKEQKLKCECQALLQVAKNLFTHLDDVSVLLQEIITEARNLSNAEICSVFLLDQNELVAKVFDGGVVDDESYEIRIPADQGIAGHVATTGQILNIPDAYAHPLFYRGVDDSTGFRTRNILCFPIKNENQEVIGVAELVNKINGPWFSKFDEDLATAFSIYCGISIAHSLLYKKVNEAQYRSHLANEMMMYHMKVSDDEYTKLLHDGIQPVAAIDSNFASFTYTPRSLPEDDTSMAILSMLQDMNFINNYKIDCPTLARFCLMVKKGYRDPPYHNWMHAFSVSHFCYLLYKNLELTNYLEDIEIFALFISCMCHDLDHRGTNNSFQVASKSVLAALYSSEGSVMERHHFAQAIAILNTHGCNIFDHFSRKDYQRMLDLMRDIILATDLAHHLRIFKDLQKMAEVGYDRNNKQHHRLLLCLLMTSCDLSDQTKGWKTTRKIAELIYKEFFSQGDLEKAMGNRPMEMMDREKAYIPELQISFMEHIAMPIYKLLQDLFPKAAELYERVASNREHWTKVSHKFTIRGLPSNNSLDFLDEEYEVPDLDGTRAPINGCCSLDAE

Regarding `Cc1nc2ccc(C3CC3)nc2n2c(-c3cc(OC4COCCC4O)ccc3Cl)nnc12` (single isomer, unassigned) [Example 109d], the results for the IC50 in series [1] and in series [2] were 1.83 µM and 0.004 µM, respectively.
As to `Cc1nc2ccc(C3CC3)nc2n2c(-c3cc(OC4COCCC4O)ccc3Cl)nnc12` (single isomer, unassigned) [Example 109a], the IC50 is 1.67 µM in series [1] and 0.014 µM in series [2].
For `Cc1nc2cccnc2n2c(-c3cc(C4(O)CCOC4)ccc3Cl)nnc12` (single isomer, unassigned) [Example 98] the same measures were 1.56 µM and 0.139 µM.
For `Cc1nc2cccnc2n2c(-c3cc(C4(O)CCOC4)ccc3Cl)nnc12` (stereo not drawn) [Example 74] the same measures were 2.34 µM and 0.131 µM.
For `Cc1ccc(O)cc1-c1nnc2c(C)nc3ccc(C(C)C)nc3n12` [Example 7] the same measures were 0.016 µM and 0.003 µM.
Regarding `Cc1nc2ccc(C3CC3)nc2n2c(-c3cc(OC4CCOCC4O)ccc3Cl)nnc12` (single isomer, unassigned) [Example 109c], the IC50 in series [1] turned out to be 1.36 µM; in series [2], 0.009 µM.
As for `Cc1nc2ccc(C3CC3)nc2n2c(-c3cc(OC4COCC4O)ccc3Cl)nnc12` (racemic) [Example 58a], the “Half-life - t½” value in series [3] amounted to 2.17 h.
Still for that read-out and setting: as for `Cc1nc2ccc(C3CC3)nc2n2c(-c3cc(OC4COCC4O)ccc3Cl)nnc12` (single isomer, unassigned) [Example 58b], the figure is 2.17 h.
`Cc1nc2ccc(C3CC3)nc2n2c(-c3cc(C4(O)CCOC4)ccc3Cl)nnc12` (single isomer, unassigned) [Example 97a] registered an IC50 in series [1] of 5.94 µM.
In the case of `Cc1nc2ccc(C(F)(F)F)nc2n2c(-c3cc(OC4COCC4O)ccc3F)nnc12` (single isomer, unassigned) [Example 106b], the IC50 in series [1] was determined as 2.5 µM; in series [2] it was 0.05 µM.
For `Cc1nc2ccc(C3CC3)nc2n2c(-c3cc(C4(O)CCOCC4)ccc3Cl)nnc12` [Example 94] the same measures were 2.72 µM and 0.001 µM.
Take `Cc1nc2ccc(C3CC3)nc2n2c(-c3cc(C4(O)CCOC4)ccc3Cl)nnc12` (racemic) [Example 97]: the IC50 in series [2] turned out to be 0.004 µM.
As to `Cc1ccc(C2(O)CCOCC2)cc1-c1nnc2c(C)nc3ccc(C(F)(F)F)nc3n12` [Example 96b], the IC50 in series [2] was determined as 0.087 µM.
For the compound `Cc1nc2ccc(C(F)(F)F)nc2n2c(-c3cc(OC4COCC4O)ccc3F)nnc12` (single isomer, unassigned) [Example 106a], the IC50 in series [1] is 1.41 µM; in series [2] it was 0.429 µM.
`Cc1nc2ccc(C(F)(F)F)nc2n2c(-c3cc(C(C)(C)O)ccc3F)nnc12` [Example 103c]: the IC50 in series [1] was found to be 7980 µM; in series [2], 0.622 µM.
With `Cc1nc2ccc(C3CC3)nc2n2c(-c3cc(OC4COCCC4O)ccc3F)nnc12` (single isomer, unassigned) [Example 108a], the IC50 in series [2] amounted to […].
On to `Cc1nc2ccc(C3CC3)nc2n2c(-c3cc(C4(O)CCOCC4O)ccc3F)nnc12` (racemic) [Example 105], for which the concentration for half-maximal inhibition (IC50) in series [1] was 1.54 µM.
Turning to `Cc1nc2ccc(C3CC3)nc2n2c(-c3cc(OC4CCOCC4O)ccc3Cl)nnc12` (single isomer, unassigned) [Example 109b], the half-inhibitory concentration (IC50) in series [1] was 1.09 µM; in series [2] it was 0.009 µM.
For `Cc1nc2ccc(C(C)C)nc2n2c(-c3cc(O)ccc3F)nnc12` [Example 8] the same measures were 0.008 µM and 0.002 µM.
For `Cc1nc2ccc(C3CC3)nc2n2c(-c3cc(C4(O)CCOCC4)ccc3F)nnc12` [Example 95] the same measures were 1.37 µM and 0.005 µM.
In the case of `Cc1nc2cccnc2n2c(-c3cc(C4(O)CCC4)ccc3F)nnc12` [Example 86], the results for the IC50 in series [1] and in series [2] were 5.75 µM and 0.434 µM, respectively.
For `Cc1ccc(OC2COCC2O)cc1-c1nnc2c(C)nc3ccc(C4CC4)nc3n12` (single isomer, unassigned) [Example 57a], the “Half-life - t½” value in series [3] is 2.17 h.
`Cc1nc2ccc(C3CC3)nc2n2c(-c3cc(C4(O)CCOC4)ccc3Cl)nnc12` (single isomer, unassigned) [Example 97b] had an IC50 in series [1] of 0.891 µM.
Regarding `Cc1nc2ccc(C3CC3)nc2n2c(-c3cc(OC4COCC4O)ccc3Cl)nnc12` (racemic) [Example 56], in series [1], the IC50 was found to be 0.061 µM.
For `Cc1ccc(OC2COCC2O)cc1-c1nnc2c(C)nc3ccc(C4CC4)nc3n12` (racemic) [Example 57], in series [3], the “Half-life - t½” value stood at 2.17 h.
Consider `Cc1ccc(O)cc1-c1nnc2c(C)nc3ccc(C4CC4)nc3n12` [Example 6], for which the figures for the IC50 in series [1] and in series [2] were 0.01 µM and 0.003 µM, respectively.
On to `Cc1nc2cccnc2n2c(-c3cc(OC[C@@H](C)O)ccc3Cl)nnc12` [Example 17], for which the “Half-life - t½” value in series [3] worked out at 2.17 h.
As for `Cc1nc2cccnc2n2c(-c3cc(OCC4(O)CCC4)ccc3F)nnc12` [Example 53], the IC50 in series [1] was 2.83 µM; in series [2] it was 0.14 µM.
For `Cc1nc2ccc(C(F)(F)F)nc2n2c(-c3cc(C4(O)CCOCC4)ccc3F)nnc12` [Example 96a], the IC50 in series [2] was 0.199 µM.
On to `Cc1cnc2c(c1)nc(C)c1nnc(-c3cc(O)ccc3Cl)n12` [Example 11], for which the IC50 came out at 0.123 µM in series [1] and 0.059 µM in series [2].
For the compound `Cc1nc2ccc(C(C)C)nc2n2c(-c3cc(C4(O)CCC4)ccc3F)nnc12` [Example 92], the IC50 in series [1] turned out to be 0.553 µM; in series [2], 0.002 µM.
`Cc1ccc(C(C)(C)O)cc1-c1nnc2c(C)nc3cc(C(C)C)cnc3n12` [Example 79]: the IC50 in series [2] amounted to 0.144 µM.
As to `Cc1nc2cccnc2n2c(-c3cc(OCC4(O)CC4)ccc3Cl)nnc12` [Example 43a], the IC50 was 4.51 µM in series [1] and 0.109 µM in series [2].
For `Cc1nc2ccc(C3CC3)nc2n2c(-c3cc(OC4COCCC4O)ccc3F)nnc12` (single isomer, unassigned) [Example 108b] the same measures were 0.594 µM and […].
In series [1], `Cc1nc2ccc(C3CC3)nc2n2c(-c3cc(O)ccc3F)nnc12` [Example 5] came in with an IC50 of 0.005 µM.
The same measure, in the same setting: the same measure for `Cc1nc2ccc(C(C)C)nc2n2c(-c3cc(C(C)(C)O)ccc3Cl)nnc12` [Example 77]: 1.4 µM.
Take `Cc1ccc(O)cc1-c1nnc2c(C)nc3ccc(C(F)(F)F)nc3n12` [Example 12a]: the results for the IC50 in series [1] and in series [2] were 0.17 µM and 0.036 µM, respectively.
For `Cc1ccc(C(C)(C)O)cc1-c1nnc2c(C)nc3ccc(C(C)C)nc3n12` [Example 78] the same measures were 2.85 µM and 0.01 µM.
Regarding `CCCC(O)c1ccc(Cl)c(-c2nnc3c(C)nc4ccc(C)nc4n23)c1` (stereo not drawn) [Example 61], the 50% inhibitory concentration (IC50) in series [1] stood at 0.534 µM; in series [2], 0.004 µM.
As for `Cc1nc2ccc(C3CC3)nc2n2c(-c3cc(O)ccc3Cl)nnc12` [Example 9], the IC50 in series [1] was 0.015 µM; in series [2], 0.001 µM.
In turn, `Cc1nc2ccc(C3CC3)nc2n2c(-c3cc(OC4CCOCC4O)ccc3F)nnc12` (single isomer, unassigned) [Example 108d] displayed an IC50 in series [1] of 0.63 µM.
Still for that read-out and setting: the same measure for `Cc1nc2ccc(C3CC3)nc2n2c(-c3cc(OC4CCOCC4O)ccc3F)nnc12` (single isomer, unassigned) [Example 108c]: 0.262 µM; for `Cc1nc2ccc(C(F)(F)F)nc2n2c(-c3cc(C4(O)CCOC4)ccc3F)nnc12` (stereo not drawn) [Example 96c]: 7.46 µM; for `Cc1nc2ccc(C3CC3)nc2n2c(-c3cc(C(C)(C)CO)ccc3F)nnc12` [Example 101]: 1.13 µM.
As for `Cc1nc2ccc(C(C)C)nc2n2c(-c3cc(C4(O)CCC4)ccc3Cl)nnc12` [Example 91], the IC50 in series [1] stood at 0.077 µM; in series [2], 0.001 µM.
For `Cc1nc2ccc(C(F)(F)F)nc2n2c(-c3cc(OC4COCCC4O)ccc3F)nnc12` (single isomer, unassigned) [Example 110b] the same measures were above 10 µM and 0.388 µM.
In the case of `Cc1nc2ccc(C(F)(F)F)nc2n2c(-c3cc(C4(O)CCOCC4)ccc3Cl)nnc12` [Example 96], the IC50 in series [2] was 0.043 µM.
On the same count and under the same terms, the same measure for `Cc1nc2ccc(C(F)(F)F)nc2n2c(-c3cc(OC4CCOCC4O)ccc3F)nnc12` (single isomer, unassigned) [Example 110d]: 0.467 µM.
As for `Cc1nc2cccnc2n2c(-c3cc(CCC(C)(C)O)ccc3F)nnc12` [Example 65], the half-maximal inhibitory concentration (IC50) in series [1] worked out at 3.54 µM.
Regarding `Cc1ccc2nc(C)c3nnc(-c4cc(C5(O)CCC5)ccc4F)n3c2n1` [Example 90], the half-maximal inhibitory concentration (IC50) in series [1] came out at 0.485 µM; in series [2] it was 0.103 µM.
In the case of `Cc1ccc(C2(O)CCOCC2)cc1-c1nnc2c(C)nc3ccc(C4CC4)nc3n12` [Example 103], the IC50 in series [1] came to 1.01 µM; in series [2] it was 0.003 µM.
Turning to `Cc1nc2ccc(C3CC3)nc2n2c(-c3cc(OC4COCC4O)ccc3Cl)nnc12` (single isomer, unassigned) [Example 58c], the “Half-life - t½” value in series [3] came to 2.17 h.
In series [1], `Cc1ccc2nc(C)c3nnc(-c4cc(CO)ccc4Cl)n3c2n1` [Example 60] registered a half-inhibitory concentration (IC50) of 0.285 µM.
For the compound `Cc1ccc(CC(C)(C)O)cc1-c1nnc2c(C)nc3ccc(C4CC4)nc3n12` [Example 81], the IC50 in series [1] is 5.38 µM; in series [2] it was 0.007 µM.
For `Cc1nc2ccc(C3CC3)nc2n2c(-c3cc(CCC(C)(C)O)ccc3Cl)nnc12` [Example 69] the same measures were 0.891 µM and 0.001 µM.
For `Cc1nc2ccc(C(F)(F)F)nc2n2c(-c3cc(O)ccc3Cl)nnc12` [Example 12] the same measures were 0.044 µM and 0.009 µM.
